“And” between values parts separate entries of the source, which are not always exact repeats. Equal values may be shown once. Read-outs that look alike come from different tables or passages of the source.

Consider eight compounds from publication PMC11661628, “Cannabis sativa extracts inhibit LDL oxidation and the formation of foam cells in vitro, acting as potential multi-step inhibitors of atherosclerosis development” (PLOS ONE, 2024).

Series [1] relates to J774.1 cells. In words: Quantitation of oxLDL endocytosis (DiI-oxLDL spectrofluorometry). Format: cell-based, murine. Conditions: for effect on oxLDL uptake by the cells (dose-response, Fig 4) / ED50: DiI-oxLDL 10 μg mL^-1, 24 h; for ED50: oxLDL internalization, NE non-effective.
The target in series [2] is TRPV4. As to conditions: read-out: Ki TRPV4; cited from earlier work.
The target in series [3] is GPR55. As to conditions: cited from earlier work.
Series [4] has as its target CB1. Conditions: cited from earlier work.
In series [5] the target is CB2. As to conditions: cited from earlier work.
Series [6] deals with J774.1 cells. Put plainly: Cellular toxicity, MTT reduction. As to conditions: 24 h. The protocol:
Cell viability was determined by the mitochondrial-dependent reduction of 3-[4,5-dimethylthiazole-2-yl]-2,5-diphenyltetrazolium bromide (MTT, Merck KGaA) to formazan. […] A control condition with vehicle alone (0.2% DMSO) was also added to each experiment. The medium was replaced with DMEM containing MTT (0.1 mg mL^-1) and the cells were incubated at 37° C for 4 h. After removing the media, formazan crystals were dissolved in DMSO, and the absorbance was registered using the Varioskan plate reader at 560 nm. […] Therapeutic indexes (TI) were calculated as the ratios between the […].

The test system of series [7] is LDL. Set-up: method as in PMID 33123676. As to conditions: already described; cited from earlier work.
Where [8] appears, read: Fig 4, 0.32 µM, 24 h, replicates n=1-3.
The mark [9] stands for this setting: Fig 4, 1.59 µM, 24 h, replicates n=1-3.
[10] abbreviates: Fig 4, 3.18 µM, 24 h, replicates n=1-3.
Where [11] appears, read: Fig 4, 12.72 µM, 24 h, replicates n=1-3.
The mark [12] stands for this setting: Fig 4, 0.28 µM, 24 h, replicates n=1-3.
Setting [13] is: Fig 4, 1.39 µM, 24 h, replicates n=1-3.
The mark [14] stands for this setting: Fig 4, 2.79 µM, 24 h, replicates n=1-3.
Where [15] appears, read: Fig 4, 8.37 µM, 24 h, replicates n=1-3.
Where [16] appears, read: Fig 4, 13.95 µM, 24 h, replicates n=1-3.

Regarding `Cc1ccc(-c2n[nH]c3c2C(c2cccc(O)c2)N(c2ccc(C(=O)O)cc2)C3=O)cc1` (centres unmarked) [CID16020046, 4-[4,6-dihydro-4-(3-hydroxyphenyl)-3-(4-methylphenyl)-6-oxopyrrolo[3,4-c]pyrazol-5(1H)-yl]benzoic acid], in series [1], the “effect of the antagonist on DiI-oxLDL uptake” value is recorded as “did not affect DiI-oxLDL uptake”.
Regarding `COc1cc(CNC(=O)CCCCC=CC(C)C)ccc1O` [Capsaicin, 8-methyl-N-vanillyl-6-nonenamide], the “increase of DiI-oxLDL uptake” value in series [1] (agonist 50 μM, 6 h, absence of extracts) was ~ 15%.
`O=C(O)CN(CCOCCOCCN(CC(=O)O)CC(=O)O)CC(=O)O` [EGTA]: in series [1] (6 h, BAPTA-AM 5–20 μM, EGTA 4 mM (S8 Fig)), the “effect of Ca2+ chelation on DiI-oxLDL internalized” value is on record as “negligible”.
`CC(C)C[C@H](NC(=O)c1cc2ccccc2s1)C(=O)N1CCN(C(=O)[C@H](CO)NS(=O)(=O)c2ccc(Cl)cc2Cl)CC1` [GSK1016790A, N-[(1S)-1-[[4-[(2S)-2-[[(2,4-dichlorophenyl)sulfonyl]amine]-3-hydroxy-1-oxopropyl]-1-piperazinyl]carbonyl]-3-methylbutyl]benzo [b]thiophene-2-carboxamide]: the “increase of DiI-oxLDL uptake” value in series [1] is listed as ~ 30%. For the same compound, the Ki in series [2] is 0.005 µM.
On to `Cc1c(C(=O)Nc2cccc(C(F)(F)F)c2)cc(-c2ccccc2)n1CCCN1CCOCC1` [HC067047, 2-methyl-1-(3-morpholin-4-ylpropyl)-5-phenyl-N -[3-(trifluoromethyl)phenyl]pyrrole-3-carboxamide], for which, in series [1], the “effect of the antagonist on DiI-oxLDL uptake” value was “did not affect DiI-oxLDL uptake”. In addition, the inhibition constant (Ki) in series [2] was 0.017 to 0.133 µM.
`Cc1cccc(N2CCN(C(=O)c3cc(S(=O)(=O)N(C)C)ccc3N3CCCC3)CC2)c1C` [ML184, 3-[[4-(2,3-dimethylphenyl)-1-piperazinyl]carbonyl]-N,N-dimethyl-4-(1-pyrrolidinyl) benzenesulfonamide]: in series [1], the “DiI-oxLDL” value was 0.641 µg/mL and 0.711 µg/mL and 0.735 µg/mL; the “increase of DiI-oxLDL uptake” value is listed as ~ 15%; the “µg DiI-oxLDL/mg protein” value was 1.308 µg DiI-oxLDL/mg protein and 1.400 µg DiI-oxLDL/mg protein and 1.366 µg DiI-oxLDL/mg protein. Also, the Ki in series [3] (read-out: Ki GPR55) is 0.26 µM. Besides, the Ki in series [4] is over 32 µM. Besides, the inhibition constant (Ki) in series [5] is over 32 µM.
Turning to `CCCCCc1cc(O)c2c(c1)OC(C)(C)[C@@H]1CCC(C)=C[C@@H]21` [THC, Δ^9-tetrahydrocannabinol], the “DiI-oxLDL” value was 4.013 µg/mL and 4.084 µg/mL and 4.342 µg/mL in series [1]; 5.502 µg/mL and 5.314 µg/mL and 5.656 µg/mL in series [1] (setting [8]); 5.307 µg/mL and 5.178 µg/mL and 5.296 µg/mL in series [1] (setting [9]); 4.772 µg/mL and 4.841 µg/mL and 4.891 µg/mL in series [1] (setting [10]); 2.336 µg/mL and 2.309 µg/mL and 2.423 µg/mL in series [1] (setting [11]). For the same compound, the “µg DiI-oxLDL/mg protein” value in series [1] is 10.0784 µg DiI-oxLDL/mg protein and 9.298 µg DiI-oxLDL/mg protein and 9.028 µg DiI-oxLDL/mg protein; in series [1] (setting [8]), 13.3989 µg DiI-oxLDL/mg protein and 14.1131 µg DiI-oxLDL/mg protein and 13.7901 µg DiI-oxLDL/mg protein; in series [1] (setting [9]), 12.9859 µg DiI-oxLDL/mg protein and 12.4983 µg DiI-oxLDL/mg protein and 12.6611 µg DiI-oxLDL/mg protein; in series [1] (setting [10]), 12.1912 µg DiI-oxLDL/mg protein and 12.4565 µg DiI-oxLDL/mg protein and 12.6501 µg DiI-oxLDL/mg protein; in series [1] (setting [11]), 6.7266 µg DiI-oxLDL/mg protein and 6.397 µg DiI-oxLDL/mg protein and 6.486 µg DiI-oxLDL/mg protein. For the same compound, the “effect on oxLDL uptake by the cells (dose-response, Fig 4)” value in series [1] is reported as “inhibited oxLDL endocytosis”. The compound further displayed an ED50 in series [1] of 11 ± 1 µM. This compound also registered an LD50 in series [6] (MTT viability curves) of 20 ± 1 µM. Moreover, the “protection of LDL from oxidation” value in series [7] is recorded as “protection”. Further, in series [3] (S2 Table, ref THC [1–5], CBD [3–6], AEA [2,3,5,8,9], AM251 [5,10–16], AM630 [14,15,17,18], ML184 [22–24], CID16020046 [25], read-out: Ki or IC50, GPR55), the inhibition constant Ki is 0.008 to 0.0089 µM.
For the compound `CCCCCc1cc2c(c(O)c1C(=O)O)C1C=C(C)CCC1C(C)(C)O2` (centres unmarked) [THCA, Δ^9-tetrahydrocannabinolic acid], the “effect on oxLDL uptake by the cells (dose-response, Fig 4)” value in series [1] is given as “inhibited oxLDL endocytosis”. The “DiI-oxLDL” value in series [1] (setting [12]) is 5.657 µg/mL and 5.8008 µg/mL and 5.782 µg/mL; in series [1] (setting [13]), 5.437 µg/mL and 5.452 µg/mL and 5.506 µg/mL; in series [1] (setting [14]), 5.849 µg/mL and 5.071 µg/mL and 5.133 µg/mL; in series [1] (setting [15]), 3.515 µg/mL and 3.542 µg/mL and 3.49 µg/mL; in series [1] (setting [16]) it was 2.689 µg/mL and 2.817 µg/mL and 2.8328 µg/mL. The “µg DiI-oxLDL/mg protein” value in series [1] (setting [12]) was 10.7513 µg DiI-oxLDL/mg protein and 10.8025 µg DiI-oxLDL/mg protein and 11.0708 µg DiI-oxLDL/mg protein; in series [1] (setting [13]), 9.919 µg DiI-oxLDL/mg protein and 9.956 µg DiI-oxLDL/mg protein and 10.007 µg DiI-oxLDL/mg protein; in series [1] (setting [14]), 9.9098 µg DiI-oxLDL/mg protein and 9.139 µg DiI-oxLDL/mg protein and 9.494 µg DiI-oxLDL/mg protein; in series [1] (setting [15]), 6.46 µg DiI-oxLDL/mg protein and 6.3952 µg DiI-oxLDL/mg protein and 6.189 µg DiI-oxLDL/mg protein; in series [1] (setting [16]), 4.86 µg DiI-oxLDL/mg protein and 5.27 µg DiI-oxLDL/mg protein and 5.206 µg DiI-oxLDL/mg protein. In series [1], this compound yielded an ED50 of 12 ± 1 µM. Also, in series [6] (explored range 3–30 μM), the “effect on cell viability and metabolism (MTT)” value is given as “no effect”. Further, the “protection of LDL from oxidation” value in series [7] was “lack of protection”. Besides, the inhibition constant (Ki) was 1.29 µM in series [4] and 1.65 µM in series [5].
